Values quoted from earlier work as cited in patent US12661367B2, “Streptomyces spororaveus strain and a new antibiotics against bacteria and fungi” (National Taipei University of Technology, priority 2022, dated 2026).

Assays:
[1] = orally used

bioavailability [1]: low bioavailability
solubility in water: nearly insoluble in water
SMILES: C[C@@H]1C/C=C/C=C/C=C/C=C/[C@H](O[C@@H]2O[C@H](C)[C@@H](O)[C@H](N)[C@@H]2O)C[C@@H]2O[C@](O)(C[C@@H](O)C[C@H]3O[C@@H]3/C=C/C(=O)O1)C[C@H](O)[C@H]2C(=O)O [natamycin]
